Source: the supplement of paper PMC10307832

Legend:
Assay in all cases: relative viability (nuclei count vs DMSO), 5 days (fraction); higher = more cells survive
[1] = compound: CN(C)C(=N)NC(=N)N [Metformin] + CC(C)C[C@H](NC(=O)[C@H](Cc1ccccc1)NC(=O)c1cnccn1)B(O)O [Bortezomib] (partner 0.002 µM)
Method in brief: (§1)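 Five library-drug doses in √10 steps were combined with a fixed anchor-drug dose, or a single drug was given alone, by pin tool to lung cancer cell lines in 1536-well plates the day after seeding. Nuclei were stained and counted after 5 days. Relative viability is the nuclei count in treated wells over that in vehicle wells, taken as the median of duplicate plates.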

[2] = compound: CN(C)C(=N)NC(=N)N [Metformin] + CS(=O)(=O)CCNCc1ccc(-c2ccc3ncnc(Nc4ccc(OCc5cccc(F)c5)c(Cl)c4)c3c2)o1 [Lapatinib] (partner 2 µM)
Method in brief: as §1

[3] = compound: CN(C)C(=N)NC(=N)N [Metformin] + Cc1cc(Nc2cc(N3CCN(C)CC3)nc(Sc3ccc(NC(=O)C4CC4)cc3)n2)n[nH]1 [Tozasertib] (partner 0.1 µM)
Method in brief: as §1

[4] = compound: CN(C)C(=N)NC(=N)N [Metformin] + O=C(c1cc(Cc2n[nH]c(=O)c3ccccc23)ccc1F)N1CCN(C(=O)C2CC2)CC1 [Olaparib] (partner 8 µM)
Method in brief: as §1

Row | Cell Line | relative viability ([1]; first compound 31.62 µM) | relative viability ([1]; first compound 100 µM) | relative viability ([1]; first compound 1000 µM) | relative viability ([2]; first compound 31.62 µM) | relative viability ([2]; first compound 100 µM) | relative viability ([2]; first compound 1000 µM) | relative viability ([3]; first compound 10 µM) | relative viability ([3]; first compound 31.62 µM) | relative viability ([3]; first compound 100 µM) | relative viability ([3]; first compound 316.23 µM) | relative viability ([3]; first compound 1000 µM) | relative viability ([4]; first compound 10 µM) | relative viability ([4]; first compound 31.62 µM) | relative viability ([4]; first compound 100 µM) | relative viability ([4]; first compound 316.23 µM) | relative viability ([4]; first compound 1000 µM) | relative viability ([1]; first compound 10 µM) | relative viability ([1]; first compound 316.23 µM) | relative viability ([2]; first compound 10 µM) | relative viability ([2]; first compound 316.23 µM)
1 | NCI-H2023 | 1.03 | 0.964 | 1.1 | 0.975 | 0.74 | 0.764 | 0.32 | 0.413 | 0.479 | 0.301 | 0.324 | 0.332 | 0.366 | 0.282 | 0.344 | 0.31 |  |  |  | 
2 | NCI-H838 | 1.14 | 0.926 | 1.23 | 0.987 | 0.918 | 0.888 | 0.28 | 0.296 | 0.349 | 0.312 | 0.258 | 0.686 | 0.691 | 0.639 | 0.596 | 0.696 | 1.02 | 0.957 | 1.13 | 0.951
3 | EKVX | 1.07 | 1.06 | 0.338 | 0.16 | 0.176 | 0.196 | 0.337 | 0.519 | 0.443 |  | 0.391 |  | 0.729 | 0.769 | 0.71 | 0.683 | 0.737 | 0.934 | 0.185 | 0.222
4 | EPLC-272H | 0.91 | 0.907 | 1.22 | 1.09 | 1.09 | 1.05 | 0.292 | 0.212 | 0.288 | 0.192 | 0.238 | 0.748 | 0.769 | 1.01 | 0.922 | 0.877 | 0.837 | 0.909 | 1.22 | 1.15
5 | NCI-H1666 | 0.942 | 0.71 | 0.864 | 0.557 | 0.601 | 0.67 | 0.625 | 0.649 | 0.703 | 0.711 | 0.725 | 0.78 | 0.76 | 0.834 | 0.726 | 0.764 | 0.789 | 0.828 | 0.57 | 0.535
6 | NCI-H322M | 1.45 | 1.19 | 1.48 | 0.598 | 0.688 | 0.585 | 0.48 | 0.454 | 0.437 | 0.432 | 0.419 | 0.686 | 0.695 | 0.739 | 0.672 | 0.654 | 1.32 | 1.36 | 0.589 | 0.614
7 | NCI-H1437 | 0.641 | 0.459 | 0.574 | 0.887 | 0.619 | 0.808 | 0.403 | 0.44 | 0.405 | 0.411 | 0.418 | 0.579 | 0.59 | 0.593 | 0.595 | 0.576 | 0.629 | 0.527 | 0.868 | 0.712
8 | NCI-H23 | 1.04 | 1.04 | 1.28 | 1.14 | 1.05 | 1.11 | 0.382 | 0.49 | 0.433 | 0.445 | 0.498 | 0.252 | 0.299 | 0.279 | 0.26 | 0.293 | 1.07 | 1.11 | 0.998 | 0.762
9 | NCI-H647 | 1.15 | 1.18 | 1.17 | 1.14 | 0.933 | 1.1 | 0.244 | 0.293 | 0.349 | 0.456 | 0.307 | 0.375 | 0.394 | 0.415 | 0.44 | 0.375 | 1.19 | 0.921 | 1.04 | 1.04
10 | NCI-H2009 | 1.16 | 1.12 | 1.09 | 0.98 | 1.01 | 0.991 | 0.761 | 0.856 | 0.802 | 0.759 | 0.783 | 0.612 | 0.69 | 0.604 | 0.568 | 0.705 | 0.694 | 1 | 0.574 | 0.889
11 | HCC-78 | 0.797 | 0.929 | 0.853 | 1.05 | 0.863 | 0.969 | 0.637 | 0.571 | 0.487 | 0.4 | 0.629 |  | 1.01 | 1.07 | 0.979 | 0.443 | 0.842 | 0.831 | 0.494 | 0.933
12 | LCLC-97TM1 | 0.87 | 0.789 | 0.351 | 1.36 | 0.888 | 1.53 | 0.18 | 0.212 | 0.212 | 0.241 | 0.231 |  | 0.321 | 0.394 | 0.249 | 0.414 | 0.635 | 0.713 | 0.888 | 1.08
